In ChEMBL document CHEMBL3885881, “DrugMatrix”:

Species: Rattus norvegicus
Assay: DrugMatrix - Regimen: Daily Repeat
Assay type: toxicity, organism-based, Sprague-Dawley
Design: regimen Daily Repeat, gender Male, age 6-8 weeks
Settings: in vivo, po, route oral GAVAGE, vehicle .5 % CMC; for BASOPHIL / EOSINOPHIL / ERYTHROCYTE COUNT / HEMATOCRIT / HEMOGLOBIN / LEUKOCYTE COUNT / LYMPHOCYTE / MEAN CORPUSCULAR HEMOGLOBIN / MEAN CORPUSCULAR HEMOGLOBIN CONCENTRATION / MEAN CORPUSCULAR VOLUME / MONOCYTE / NEUTROPHIL / PLATELET COUNT: tissue Blood; for ALANINE AMINOTRANSFERASE / ALBUMIN / ALKALINE PHOSPHATASE / ASPARTATE AMINOTRANSFERASE / BLOOD UREA NITROGEN / CHLORIDE / CHOLESTEROL / CREATINE PHOSPHOKINASE / CREATININE / GLUCOSE / PHOSPHORUS / POTASSIUM / SODIUM / TOTAL BILIRUBIN / TOTAL PROTEIN: tissue Plasma
[1] = 20 mg/kg, 72 h, dose level Low, time 3 day
[2] = 20 mg/kg, 120 h, dose level Low, time 5 day
[3] = 380 mg/kg, 72 h, dose level High, time 3 day
[4] = 380 mg/kg, 120 h, dose level High, time 5 day

CNCCCC12CCC(c3ccccc31)c1ccccc12 [MAPROTILINE]
BASOPHIL [1]: 0% | EOSINOPHIL [1]: 0.33% | ERYTHROCYTE COUNT [1]: 5.97 x10E6/uL | HEMATOCRIT [1]: 35.97% | HEMOGLOBIN [1]: 14.2 G/DL | LEUKOCYTE COUNT [1]: 11.3 x10E3/uL | LYMPHOCYTE [1]: 87.33% | MEAN CORPUSCULAR HEMOGLOBIN [1]: 23.77 pg | MEAN CORPUSCULAR HEMOGLOBIN CONCENTRATION [1]: 39.47 G/DL | MEAN CORPUSCULAR VOLUME [1]: 60.2 fL | MONOCYTE [1]: 1.67% | NEUTROPHIL [1]: 10.67% | PLATELET COUNT [1]: 1123 x10E3/uL | ALANINE AMINOTRANSFERASE [1]: 39.33 u/L | ALBUMIN [1]: 3.83 G/DL | ALKALINE PHOSPHATASE [1]: 403 u/L | ASPARTATE AMINOTRANSFERASE [1]: 64 u/L | BLOOD UREA NITROGEN [1]: 12.67 mg/dL | CHLORIDE [1]: 106.67 MEQ/L | CHOLESTEROL [1]: 71.67 mg/dL | CREATINE PHOSPHOKINASE [1]: 175 u/L | CREATININE [1]: 0.67 mg/dL | GLUCOSE [1]: 177.33 mg/dL | PHOSPHORUS [1]: 12.37 mg/dL | POTASSIUM [1]: 6.9 MEQ/L | SODIUM [1]: 151.33 MEQ/L | TOTAL BILIRUBIN [1]: 0.57 mg/dL | TOTAL PROTEIN [1]: 6.1 G/DL | BASOPHIL [2]: 0% | EOSINOPHIL [2]: 1% | ERYTHROCYTE COUNT [2]: 6.02 x10E6/uL | HEMATOCRIT [2]: 36.33% | HEMOGLOBIN [2]: 15.57 G/DL | LEUKOCYTE COUNT [2]: 13.27 x10E3/uL | LYMPHOCYTE [2]: 86.33% | MEAN CORPUSCULAR HEMOGLOBIN [2]: 25.9 pg | MEAN CORPUSCULAR HEMOGLOBIN CONCENTRATION [2]: 42.9 G/DL | MEAN CORPUSCULAR VOLUME [2]: 60.4 fL | MONOCYTE [2]: 1.33% | NEUTROPHIL [2]: 11.33% | PLATELET COUNT [2]: 1112.33 x10E3/uL | ALANINE AMINOTRANSFERASE [2]: 38.67 u/L | ALBUMIN [2]: 3.83 G/DL | ALKALINE PHOSPHATASE [2]: 339.67 u/L | ASPARTATE AMINOTRANSFERASE [2]: 60 u/L | BLOOD UREA NITROGEN [2]: 14.33 mg/dL | CHLORIDE [2]: 108.67 MEQ/L | CHOLESTEROL [2]: 65.33 mg/dL | CREATINE PHOSPHOKINASE [2]: 168.67 u/L | CREATININE [2]: 0.7 mg/dL | GLUCOSE [2]: 182.33 mg/dL | PHOSPHORUS [2]: 12 mg/dL | POTASSIUM [2]: 6.77 MEQ/L | SODIUM [2]: 149 MEQ/L | TOTAL BILIRUBIN [2]: 0.6 mg/dL | TOTAL PROTEIN [2]: 6.27 G/DL | BASOPHIL [3]: 0% | EOSINOPHIL [3]: 0.33% | ERYTHROCYTE COUNT [3]: 6.59 x10E6/uL | HEMATOCRIT [3]: 38.93% | HEMOGLOBIN [3]: 15.5 G/DL | LEUKOCYTE COUNT [3]: 12 x10E3/uL | LYMPHOCYTE [3]: 88.67% | MEAN CORPUSCULAR HEMOGLOBIN [3]: 23.53 pg | MEAN CORPUSCULAR HEMOGLOBIN CONCENTRATION [3]: 39.8 G/DL | MEAN CORPUSCULAR VOLUME [3]: 59.17 fL | MONOCYTE [3]: 2.33% | NEUTROPHIL [3]: 8.67% | PLATELET COUNT [3]: 1142.67 x10E3/uL | ALANINE AMINOTRANSFERASE [3]: 38 u/L | ALBUMIN [3]: 3.63 G/DL | ALKALINE PHOSPHATASE [3]: 350.33 u/L | ASPARTATE AMINOTRANSFERASE [3]: 63.67 u/L | BLOOD UREA NITROGEN [3]: 14.33 mg/dL | CHLORIDE [3]: 106.33 MEQ/L | CHOLESTEROL [3]: 88.67 mg/dL | CREATINE PHOSPHOKINASE [3]: 166.33 u/L | CREATININE [3]: 0.5 mg/dL | GLUCOSE [3]: 164.67 mg/dL | PHOSPHORUS [3]: 10.83 mg/dL | POTASSIUM [3]: 6.27 MEQ/L | SODIUM [3]: 152.33 MEQ/L | TOTAL BILIRUBIN [3]: 0.4 mg/dL | TOTAL PROTEIN [3]: 5.93 G/DL | BASOPHIL [4]: 0% | EOSINOPHIL [4]: 1% | ERYTHROCYTE COUNT [4]: 7.43 x10E6/uL | HEMATOCRIT [4]: 42% | HEMOGLOBIN [4]: 16.1 G/DL | LEUKOCYTE COUNT [4]: 7.2 x10E3/uL | LYMPHOCYTE [4]: 85% | MEAN CORPUSCULAR HEMOGLOBIN [4]: 21.7 pg | MEAN CORPUSCULAR HEMOGLOBIN CONCENTRATION [4]: 38.3 G/DL | MEAN CORPUSCULAR VOLUME [4]: 56.5 fL | MONOCYTE [4]: 1% | NEUTROPHIL [4]: 13% | PLATELET COUNT [4]: 1275 x10E3/uL | ALANINE AMINOTRANSFERASE [4]: 81 u/L | ALBUMIN [4]: 3.7 G/DL | ALKALINE PHOSPHATASE [4]: 457 u/L | ASPARTATE AMINOTRANSFERASE [4]: 158 u/L | BLOOD UREA NITROGEN [4]: 17.5 mg/dL | CHLORIDE [4]: 108 MEQ/L | CHOLESTEROL [4]: 44.5 mg/dL | CREATINE PHOSPHOKINASE [4]: 289 u/L | CREATININE [4]: 0.65 mg/dL | GLUCOSE [4]: 206 mg/dL | PHOSPHORUS [4]: 12.6 mg/dL | POTASSIUM [4]: 7.3 MEQ/L | SODIUM [4]: 151.5 MEQ/L | TOTAL BILIRUBIN [4]: 0.35 mg/dL | TOTAL PROTEIN [4]: 5.95 G/DL
